Patent US4757068A, “Lactams and bicyclic lactams useful as cholecystokinin antagonists” (Merck & Co., Inc., priority 1985, dated 1988)

Assays:
CCK receptor [1] = molecular target: T1, CCK receptor (Rattus norvegicus, UniProt P30551); assay: 125I-CCK-33 receptor binding (pancreas or brain; tissue not stated); details: added protease inhibitors in binding buffer
T1 construct: from tissue
T1 sequence (P30551 1-444): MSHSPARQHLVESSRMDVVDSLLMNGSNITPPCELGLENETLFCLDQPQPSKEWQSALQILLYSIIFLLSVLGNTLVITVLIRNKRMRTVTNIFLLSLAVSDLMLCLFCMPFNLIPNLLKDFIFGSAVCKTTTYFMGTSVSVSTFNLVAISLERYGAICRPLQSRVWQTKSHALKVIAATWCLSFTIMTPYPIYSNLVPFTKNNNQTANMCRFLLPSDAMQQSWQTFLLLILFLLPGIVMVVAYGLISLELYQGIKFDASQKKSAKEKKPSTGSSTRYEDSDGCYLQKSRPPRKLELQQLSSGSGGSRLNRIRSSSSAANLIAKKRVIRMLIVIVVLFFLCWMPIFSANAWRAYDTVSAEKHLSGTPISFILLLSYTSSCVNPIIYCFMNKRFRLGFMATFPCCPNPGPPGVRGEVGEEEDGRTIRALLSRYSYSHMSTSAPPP
Experimental: (§1) CCK-33 was radiolabeled with ^125 I-Bolton Hunter reagent (2000 Ci/mmole) as described by Sankara et al. (J. Biol. Chem. 254: 9349-9351, 1979). Receptor binding was performed according to Innis and Snyder (Proc. Natl. Acad. Sci. 77: 6917-6921, 1980) with the minor modification of adding the additional protease inhibitors, phenylmethane sulfonyl fluoride and o-phenanthroline.
(§2) Male Sprague-Dawley rats (200-350g) were sacrificed by decapitation. The whole pancreas was dissected free of fat tissue and was homogenized in 20 volumes of ice-cold 50 mM, Tris HCl (pH 7.7 at 25° C.) with a Brinkmann Polytron PT 10. The homogenates were centrifuged at 48,000 g for 10 min. Pellets were resuspended in Tris Buffer, centrifuged as above and resuspended in 200 volumes of binding assay buffer (50 mM Tris HCl, pH 7.7 at 25° C., 5 mM dithriothriethel, 0.1 mM bacitracin, 1.2 mM phenylmethane sulfonyl fluoride, and 0.5 mM phenathroline). […] All assays were run in duplicate or triplicate. The reaction mixtures were incubated at 37° C. for 30 minutes and centrifuged in a Beckman Microfuge (4 minutes) immediately after adding 1 ml of ice-cold incubation buffer. The supernatant was aspirated and discarded, pellets were counted with a Beckman gamma 5000.
(§3) CCK-33 was radiolabeled and the binding was performed according to the description for the pancreas method with modifications according to Saito et al. (J. Neurochem., 37, 483-490 (1981)).
(§4) Male Hartley guinea pigs (300-500g) were sacrificed by decapitation and the brains were removed and placed in ice-cold 50 mM, Tris HCl plus 7.58 g/l Tritma-7.4 (pH 7.4 at 25° C.) Cerebral cortex was dissected and used as a receptor source. Each gram of fresh guinea pig brain tissue was homogenized in 10 ml of Tris/Trizma buffer with a Brinkman polytron PT-10. The homogenates were centrifuged at 42,000 g for 15 min. Pellets were resuspended in Tris Buffer, centrifuged as above and resuspended in 200 volumes of binding assay buffer (10 mM HEPES, pH 7.7 at 25° C., 5 mM MgCl2, 1 mM EGTA, 0.4% BSA (bovine serum albumin), and 0.25 mg/ml bacitracin). […] All assays were run in duplicate or triplicate. The reaction mixtures were incubated at 25° C. for 2 hours and centrifuged in a Beckman Microfuge (4 minutes) immediately after adding 1 ml of ice-cold incubation buffer. The supernatant was aspirated and discarded, pellets were counted with a Beckman gamma 5000.

CCK receptor [2] = details: various members of the cyclic nucleotide class, literature; cited from earlier work
CCK receptor [3] = assay: 125I-CCK-33 receptor binding (pancreas or brain; tissue not stated); details: 125I-CCK-33; tissue (rat pancreas or guinea pig brain) not stated; read-out: inhibition of specific 125I-CCK-33 binding, IC50
Experimental: as §1, §2, §3, §4

IC50 (CCK receptor [3]) [µM] | Compound | effect on the 125I-CCK receptor binding assay (CCK receptor [1]) | further results
 | O=S(=O)(F)Cc1ccccc1 [phenylmethane sulfonyl fluoride] | no effect | 
 | c1cnc2c(c1)ccc1cccnc12 [o-phenanthroline] | no effect | 
 | CCCC(=O)Nc1nc2c(ncn2[C@@H]2O[C@@H]3COP(=O)(O)O[C@H]3[C@H]2OC(=O)CCC)c(=O)[nH]1 [dibutyryl cyclic GMP] |  | potency rank among cyclic nucleotide CCK antagonists (CCK receptor [2]): most potent
72 | COC(=O)CN1C(=O)C(C)(NC(CCc2ccccc2)C(=O)OC)CCc2ccccc21 (centres unmarked) [1-Carbomethoxymethyl-3-(1-carbomethoxy-3-phenylpropyl)amino-3-methyl homodihydrocarbostyril] |  | 
32 | CCOC(=O)C(CCc1ccccc1)NC1CCCC(c2ccccc2)N(CC(=O)OC)C1=O (single isomer, unassigned) [1-Carbomethoxymethyl-3-(1-carbethoxy-3-phenylpropyl)amino-7-phenylperhydroazepin-2-one] |  | 
